{"source": "patent US20230051589A1", "about": "“COMPOUNDS AND COMPOSITIONS FOR TREATING CONDITIONS ASSOCIATED WITH NLRP ACTIVITY” (Novartis AG, priority 2018, published 2023)", "system": "IL-1β production in PMA-differentiated THP-1 cells", "assay": "IL-1β production in PMA-differentiated THP-1 cells stimulated with gramicidin (hTHP-1 assay, 2% fetal bovine serum; Procedures 1-3)", "type": "cell-based, human", "how_it_was_run": "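PMA-primed THP-1 cells (20 ng/ml PMA, 16-18 h) in RPMI with 2% FBS were pre-incubated with compounds for 1 h, from 100 μM downward in 3-fold steps (0.37% DMSO final), then stimulated with 5 μM gramicidin for 2 h. IL-1β in the supernatant was quantified by HTRF.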", "key": {"[1]": {"settings": "hTHP-1 assay containing 2% fetal bovine serum, Table B2, class symbols, read-out: IC50"}, "[2]": {"settings": "Table B3, hTHP-1 assay containing 2% fetal bovine serum, gramicidin stimulation, IL-1β readout, read-out: hTHP-1 IC50"}, "[3]": {"settings": "Homo sapiens, THP-1, hTHP-1 assay containing 2% fetal bovine serum, Table B2, class symbols, read-out: IC50"}, "[4]": {"settings": "Table B1, hTHP-1 assay containing 2% fetal bovine serum, gramicidin stimulation, IL-1β readout, read-out: hTHP-1 IC50 (average)"}, "[5]": {"settings": "Homo sapiens, THP-1, Table B3, hTHP-1 assay containing 2% fetal bovine serum, gramicidin stimulation, IL-1β readout, read-out: hTHP-1 IC50"}}, "note": "Like-named read-outs stand apart in the source and are kept apart here.", "data": [{"smiles": "CN1CCc2cc(S(N)(=O)=NC(=O)Nc3c4c(cc5c3CCC5)CCC4)sc2C1", "note": "(single isomer, unassigned) [Example 558, (R) or (S)-N′-((1,2,3,5,6,7-hexahydro-5-indacen-4-yl)carbamoyl)-6-methyl-4,5,6,7-tetrahydrothieno [2,3-c]pyridine-2-sulfonimidamide]", "values": [{"measurement": "IC50", "setting": "[1]", "result": "40 to 200", "unit": "nM"}]}, {"smiles": "CNS(=O)(=O)c1cccc(S(N)(=O)=NC(=O)Nc2c3c(cc4c2CCC4)CCC3)c1", "note": "(single isomer, unassigned) [Example 792, (S) or (R)-3-(N′-((1,2,3,5,6,7-hexahydro-s-indacen-4-yl)carbamoyl)sulfamidimidoyl)-N-methylbenzenesulfonamide]", "values": [{"measurement": "IC50", "setting": "[2]", "result": "1000 to 5000", "unit": "nM"}]}, {"smiles": "CC(C)n1nc(S(N)(=O)=NC(=O)Nc2c3c(cc4c2C(=O)CC4)CCC3)cc1CO", "note": "(stereo not shown) [Compound 907]", "values": [{"measurement": "IC50", "setting": "[3]", "result": "1000 to 5000", "unit": "nM"}]}, {"smiles": "COC1CCc2csc(S(N)(=O)=NC(=O)Nc3c4c(cc5c3CCC5)CCC4)c2C1", "note": "(single isomer, unassigned) [Example 858, (S, R) or (R, R)-N′-((1,2,3,5,6,7-hexahydro-s-indacen-4-yl)carbamoyl)-6-methoxy-4,5,6,7-tetrahydrobenzo[c]thiophene-1-sulfonimidamide]", "values": [{"measurement": "IC50", "setting": "[2]", "result": "5000 to 30000", "unit": "nM"}]}, {"smiles": "CC(C)(O)c1cc(F)c(S(N)(=O)=NC(=O)Nc2c3c(cc4c2CCC4)CCC3)s1", "note": "(single isomer, unassigned) [Example 385, (R) or (S)-3-fluoro-N′-((1,2,3,5,6,7-hexahydro-s-indacen-4-yl)carbamoyl)-5-(2-hydroxypropan-2-yl)thiophene-2-sulfonimid-amide]", "values": [{"measurement": "IC50", "setting": "[4]", "result": "8 to 40", "unit": "nM"}]}, {"smiles": "CN(C)C1CCc2cc(S(N)(=O)=NC(=O)Nc3c4c(cc5c3CCC5)CCC4)sc2C1", "note": "(stereo not shown) [Example 752, 6-(Dimethylamino)-N′-((1,2,3,5,6,7-hexahydro-s-indacen-4-yl)carbamoyl)-4,5,6,7-tetrahydrobenzo[b]thiophene-2-sulfonimidamide]", "values": [{"measurement": "IC50", "setting": "[5]", "result": "1000 to 5000", "unit": "nM"}]}, {"smiles": "CN(C)CC(C)(C)c1ccc(S(N)(=O)=NC(=O)Nc2c3c(cc4c2CCC4)CCC3)cc1", "note": "(single isomer, unassigned) [Example 810, (S) or (R)-4-(1-(dimethylamino)-2-methylpropan-2-yl)-N′-((1,2,3,5,6,7-hcxahydro-s-indaccn-4-yl)carbamoyl)benzenesulfonimidamide]", "values": [{"measurement": "IC50", "setting": "[2]", "result": "5000 to 30000", "unit": "nM"}]}, {"smiles": "C[C@@](O)(CO)c1ncc(S(N)(=O)=NC(=O)Nc2c3c(cc4c2CC4)CCC3)s1", "note": "(single isomer, unassigned) [Example 817, (R) or (S)-2-((R)-1,2-dihydroxypropan-2-yl)-N′-((2,4,5,6-tetrahydro-1H-cyclobuta[f]inden-3-yl)carbamoyl)thiazole-5-sulfonimidamide]", "values": [{"measurement": "IC50", "setting": "[2]", "result": "8 to 40", "unit": "nM"}]}, {"smiles": "NS(=O)(=NC(=O)Nc1c2c(cc3c1CC3)CCC2)c1sc2c(c1F)CNCC2", "note": "(stereo not shown) [Example 732, 3-Fluoro-N′-((2,4,5,6-tetrahydro-1H-cyclobuta[f]inden-3-yl)carbamoyl)-4,5,6,7-tetrahydrothieno[3,2-c]pyridine-2-sulfonimidamide]", "values": [{"measurement": "IC50", "setting": "[5]", "result": "8 to 40", "unit": "nM"}]}, {"smiles": "CC(C)(O)c1cnc(S(N)(=O)=NC(=O)Nc2c3c(cc4c2C(=O)CC4)CCC3)s1", "note": "(single isomer, unassigned) [Example 573, (S) or (R)-5-(2-hydroxypiopan-2-yl)-N′-((3-oxo-1,2,3,5,6,7-hexahydro-s-indacen-4-yl)carbamoyl)thiazole-2-sulfonimidamide]", "values": [{"measurement": "IC50", "setting": "[1]", "result": "5000 to 30000", "unit": "nM"}]}, {"smiles": "Cc1c(C2CC2)cc2c(c1NC(=O)N=S(N)(=O)c1sc(C(C)(C)O)cc1F)CCC2", "note": "(single isomer, unassigned) [Example 686, (S) or (R)-N′-((6-cyclopropyl-5-methyl-2,3-dihydro-1H-inden-4-yl)carbamoyl)-3-fluoro-5-(2-hydroxypropan-2-yl)thiophene-2-sulfonimidamide]", "values": [{"measurement": "IC50", "setting": "[1]", "result": "1000 to 5000", "unit": "nM"}]}, {"smiles": "NS(=O)(=NC(=O)Nc1c2c(cc3c1CC3)CCC2)c1cc2c(s1)CCN[C@H]2C(F)F", "note": "(single isomer, unassigned) [Example 877, (S or R,4R)-4-(difluoromethyl)-N′-((2,4,5,6-tetrahydro-1H-cyclobuta[f]inden-3-yl)carbamoyl)-4,5,6,7-tetrahydrothieno[3,2-c]pyridine-2-sulfonimidamide]", "values": [{"measurement": "IC50", "setting": "[2]", "result": "1000 to 5000", "unit": "nM"}]}, {"smiles": "C[C@](O)(COCCOCc1ccccc1)c1ccc([S@@](N)(=O)=NC(=O)Nc2c3c(cc4c2CCC4)CCC3)s1", "note": "(racemic) [Example 746, (S)-5-((S)-1-(2-(benzyloxy)ethoxy)-2-hydroxypropan-2-yl)-N′-((1,2,3,5,6,7-hexahydro-s-indacen-4-yl)carbamoyl)thiophene-2-sulfonimidamide]", "values": [{"measurement": "IC50", "setting": "[5]", "result": "200 to 1000", "unit": "nM"}]}, {"smiles": "CC(C)(O)c1cc(S(N)(=O)=NC(=O)Nc2c3c(c(C#N)c4c2CCC4)CCC3)nn1-c1ccccc1", "note": "(stereo not shown) [Example 490, N′-((8-cyano-1,2,3,5,6,7-hexahydro-s-indacen-4-yl)carbamoyl)-5-(2-hydroxypropan-2-yl)-1-phenyl-1H-pyrazole-3-sulfonamide]", "values": [{"measurement": "IC50", "setting": "[3]", "result": "200 to 1000", "unit": "nM"}]}, {"smiles": "NS(=O)(=NC(=O)Nc1c2c(cc3c1CCC3)CCC2)c1sc(CNC2CCC2)cc1F", "note": "(stereo not shown) [Example 726, 5-((Cyclobutylamino)methyl)-3-fluoro-N′-((1,2,3,5,6,7-hexahydro-s-indacen-4-yl)carbamoyl)thiophene-2-sulfonimidamide]", "values": [{"measurement": "IC50", "setting": "[5]", "result": "200 to 1000", "unit": "nM"}]}, {"smiles": "CC(C)n1nc(S(N)(=O)=NC(=O)Nc2c3c(cc4c2C(=O)CC4)CCC3)cc1C(C)(C)O", "note": "(stereo not shown) [Compound 908]", "values": [{"measurement": "IC50", "setting": "[3]", "result": "200 to 1000", "unit": "nM"}]}, {"smiles": "CCn1ccc(S(N)(=O)=NC(=O)Nc2c3c(cc4c2CCC4)CCC3)n1", "note": "(stereo not shown) [Compound 904]", "values": [{"measurement": "IC50", "setting": "[3]", "result": "200 to 1000", "unit": "nM"}]}, {"smiles": "NS(=O)(=NC(=O)Nc1c2c(cc3c1CCC3)CCC2)c1cnn2c1OC[C@H](O)C2", "note": "(single isomer, unassigned) [Example 515, (R,6R) or (S,6R)-N′-((1,2,3,5,6,7-hexahydro-s-indacen-4-yl)carbamoyl)-6-hydroxy-6,7-dihydro-5H-pyrazolo[5,1-b] [1,3]oxazine-3-sulfonimidamide]", "values": [{"measurement": "IC50", "setting": "[1]", "result": "40 to 200", "unit": "nM"}]}, {"smiles": "CNC(C)(C)c1ccc(S(N)(=O)=NC(=O)Nc2c3c(cc4c2CCC4)CCC3)c(F)c1", "note": "(stereo not shown) [Example 451, 2-Fluoro-N′-(1,2,3,5,6,7-hexahydros-indacen-4-ylcarbamoyl)-4-(2-(methylamino)propan-2-yl)benzenesulfonimidamideonimidamide]", "values": [{"measurement": "IC50", "setting": "[3]", "result": "200 to 1000", "unit": "nM"}]}, {"smiles": "CNCc1cc(F)c(S(N)(=O)=NC(=O)Nc2c3c(cc4c2CCC4)CCC3)s1", "note": "(stereo not shown) [Example 481, 3-Fluoro-N′-((1,2,3,5,6,7-hexahydro-s-indacen-4-yl)carbamoyl)-5-((methylamino)methyl)thiophene-2-sulfonimidamide]", "values": [{"measurement": "IC50", "setting": "[3]", "result": "40 to 200", "unit": "nM"}]}, {"smiles": "CC(C)(O)c1cnc(S(N)(=O)=NC(=O)Nc2c3c(cc4c2CCC4O)CCC3)s1", "note": "(single isomer, unassigned) [Example 656, (S,S) or (S,R)-N′-((1-hydroxy-1,2,3,5,6,7-hexahydro-5-indacen-4-yl)carbamoyl)-5-(2-hydroxypropan-2-yl)thiazole-2-sulfonimidamide]", "values": [{"measurement": "IC50", "setting": "hTHP-1 assay containing 2% fetal bovine serum, Table B2, given as bound, read-out: IC50", "result": "> 30000", "unit": "nM"}]}, {"smiles": "NS(=O)(=NC(=O)Nc1c2c(cc3c1CC3)CCC2)c1cc2c(s1)CCN(CC(F)F)C2", "note": "(stereo not shown) [Example 773, 5-(2,2-Difluoroethyl)-N′-((2,4,5,6-tetrahydro-1H-cyclobuta[f]inden-3-yl)carbamoyl)-4,5,6,7-tetrahydrothieno[3,2-c]pyridine-2-sulfonimidamide]", "values": [{"measurement": "IC50", "setting": "[5]", "result": "1000 to 5000", "unit": "nM"}]}, {"smiles": "COC1CCc2csc(S(N)(=O)=NC(=O)Nc3c4c(cc5c3CCC5)CCC4)c2C1", "note": "(single isomer, unassigned) [Example 856, (S, S) or (R, S)-N′-((1,2,3,5,6,7-hexahydro-s-indacen-4-yl)carbamoyl)-6-methoxy-4,5,6,7-tetrahydrobenzo[c]thiophene-1-sulfonimidamide]", "values": [{"measurement": "IC50", "setting": "[2]", "result": "> 30000", "unit": "nM"}]}, {"smiles": "Cc1c(C2CC2)cc2c(c1NC(=O)N=[S@@](N)(=O)c1cc(C(C)(C)O)cs1)CCC2", "note": "(single isomer, unassigned) [Example 498, (R) or (S)-N′-((6-cyclopropyl-5-methyl-2,3-dihydro-1H-inden-4-yl)carbamoyl)-4-(2-hydroxyprepan-2-yl)thiophene-2-sulfonimidamide]", "values": [{"measurement": "IC50", "setting": "[1]", "result": "8 to 40", "unit": "nM"}]}, {"smiles": "CC(C)(O)c1ncc(S(N)(=O)=NC(=O)Nc2c3c(cc4c2C(O)CC4)CCC3)s1", "note": "(single isomer, unassigned) [Example 392, (R, S) or (R, R) or (S, R) or (S, S)-N′-((3-hydroxy-1,2,3,5,6,7-hexahydroxy-indacen-4-yl)carbamoyl)-2-(2-hydroxypropan-2-yl)thiazole-5-sulfonimid-amide]", "values": [{"measurement": "IC50", "setting": "[4]", "result": "200 to 1000", "unit": "nM"}]}, {"smiles": "CN(C)C(c1ccc(S(N)(=O)=NC(=O)Nc2c3c(cc4c2CCC4)CCC3)cc1)C(F)F", "note": "(single isomer, unassigned) [Example 647, (S,R) or (R,R)-4-(1-(dimethylamino)-2,2-difluoroethyl)-N′-((1,2,3,5,6,7-hexahydro-s-indacen-4-yl)carbamoyl) benzenesulfonimidamide]", "values": [{"measurement": "IC50", "setting": "[1]", "result": "200 to 1000", "unit": "nM"}]}, {"smiles": "CC(C)c1cnc(S(N)(=O)=NC(=O)Nc2c3c(cc4c2CCC4)CCC3)c(F)c1", "note": "(single isomer, unassigned) [Example 812, (S) or (R)-3-fluoro-N′-((1,2,3,5,6,7-hexahydro-s-indacen-4-yl)carbamoyl)-5-isopropylpyridine-2-sulfonimidamide]", "values": [{"measurement": "IC50", "setting": "[2]", "result": "5000 to 30000", "unit": "nM"}]}, {"smiles": "CN(Cc1ccc(S(N)(=O)=NC(=O)Nc2c3c(cc4c2CC4)CCC3)c(F)c1)C1CCC1", "note": "(single isomer, unassigned) [Example 797, (R) or (S)-4-((cyclobutyl(methyl)amino)methyl)-2-fluoro-N′-((2,4,5,6-tetrahydro-1H-cyclobuta[f]inden-3-yl)carbamoyl)benzenesulfonimidamide]", "values": [{"measurement": "IC50", "setting": "[2]", "result": "200 to 1000", "unit": "nM"}]}]}
